Where only a bound is given, the exact number is not on record here.

The values below come from article PMC4603696, “Discovery and characterization of novel small-molecule inhibitors targeting nicotinamide phosphoribosyltransferase” (Scientific Reports, 2015).

The target in one test is NAMPT (Homo sapiens, UniProt P43490). The test is described as follows: NAMPT activity assay by fluorescence of NMN derivative (HTS system), IC50 determination. The test is classed as biochemical. More on the design: His-tag; made in house; host or cells: E. coli BL21-CodonPlus (DE3)-RIL. Particulars: recombinant human NAMPT, mean ± s.e.; read-out: NAMPT IC50.
Chain of NAMPT (P43490 whole entry): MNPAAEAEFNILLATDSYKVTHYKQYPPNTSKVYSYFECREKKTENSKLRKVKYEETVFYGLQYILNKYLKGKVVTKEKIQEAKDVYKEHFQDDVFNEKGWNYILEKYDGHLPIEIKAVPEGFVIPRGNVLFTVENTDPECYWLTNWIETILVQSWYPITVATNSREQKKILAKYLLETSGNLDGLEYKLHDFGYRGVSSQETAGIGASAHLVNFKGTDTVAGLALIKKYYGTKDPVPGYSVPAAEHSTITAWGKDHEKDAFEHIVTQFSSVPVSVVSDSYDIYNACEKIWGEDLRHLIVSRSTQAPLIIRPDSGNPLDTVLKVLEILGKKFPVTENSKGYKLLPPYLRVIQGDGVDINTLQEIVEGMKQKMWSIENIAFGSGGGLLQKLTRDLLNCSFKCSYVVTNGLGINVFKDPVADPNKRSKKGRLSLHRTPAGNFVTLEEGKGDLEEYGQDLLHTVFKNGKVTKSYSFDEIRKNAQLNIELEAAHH
For the compound `O=C(Nc1ccc(S(=O)(=O)N2CCCCC2)cc1)OCc1cccnc1` [MS17], the IC50 came out at 0.0428 ± 0.004 µM.

As to `Nc1ccc(CN2CCN(S(=O)(=O)c3ccc(NC(=S)NCc4cccnc4)cc3)CC2)cc1` [MS38], the IC50 came out at 0.0199 ± 0.0028 µM.

`O=S(=O)(c1ccc(NC(=S)NCc2cccnc2)cc1)N1CCNCC1` [MS2]: the IC50 was found to be 0.0845 ± 0.0075 µM.

`O=S(=O)(c1ccc(NC(=S)NCc2cccnc2)cc1)N1CCN(Cc2nc3ccccc3[nH]2)CC1` [MS39]: the half-inhibitory concentration (IC50) came to 0.014 ± 0.0003 µM.

`O=C(c1ccc(NC(=S)NCc2cccnc2)cc1)N1CCCCC1` [MS15]: the IC50 came to 0.0422 ± 0.0031 µM.

In the case of `O=S(=O)(c1ccc(NC(=S)NCc2cccnc2)cc1)N1CCN(c2ccccn2)CC1` [MS6, 1-(4-((4-(pyridin-2-yl)piperazin-1-yl)sulfonyl)phenyl)-3-(pyridin-3-ylmethyl)thiourea], the IC50 was 0.0177 ± 0.0034 µM.

Regarding `O=S(=O)(c1ccc(NC(=S)NCc2cccnc2)cc1)N1CCN(Cc2cccc(Cl)c2)CC1` [MS29], the IC50 came to 0.0126 ± 0.0017 µM.

For the compound `COc1ccc(CCNC(=O)c2cc3ccccc3s2)cc1OC` [compound 2161], the half-inhibitory concentration (IC50) turned out to be 0.149 ± 0.021 µM.

Take `O=S(=O)(c1ccc(NC(=S)NCc2cccnc2)cc1)N1CCN(Cc2cccc(F)c2)CC1` [MS24]: the IC50 stood at 0.0089 ± 0.0005 µM.

`O=S(=O)(c1ccc(NC(=S)NCc2cccnc2)cc1)N1CCN(Cc2ccccc2F)CC1` [MS25]: the half-maximal inhibitory concentration (IC50) was 0.0123 ± 0.002 µM.

Take `O=S(=O)(c1ccc(NC(=S)NCc2cccnc2)cc1)N1CCN(Cc2cccs2)CC1` [MS43]: the IC50 came out at 0.0388 ± 0.0018 µM.

Take `O=S(=O)(c1ccc(NC(=S)NCc2cccnc2)cc1)N1CCCC1` [MS9, 1-(pyridin-3-ylmethyl)-3-(4-(pyrrolidin-1-ylsulfonyl)phenyl)thiourea]: the IC50 was determined as 0.0439 ± 0.0024 µM.

As to `O=S(=O)(c1ccc(NC(=S)NCc2cccnc2)cc1)N1CCN(Cc2ccsc2)CC1` [MS41], the IC50 was 0.0225 ± 0.0008 µM.

Turning to `Cc1ccc2oc(=O)n(CCC(N)=NOC(=O)c3ccccc3)c2c1` [compound 7391], the half-inhibitory concentration (IC50) was found to be 0.855 ± 0.17 µM.

As to `CN1CCN(S(=O)(=O)c2ccc(NC(=S)NCc3cccnc3)cc2)CC1` [MS4], the concentration for half-maximal inhibition (IC50) is 0.0964 ± 0.0123 µM.

`CC(=O)N1CCN(S(=O)(=O)c2ccc(NC(=S)NCc3cccnc3)cc2)CC1` [MS5, 1-(4-((4-acetylpiperazin-1-yl)sulfonyl)phenyl)-3-(pyridin-3-ylmethyl)thiourea]: the IC50 was found to be 0.0405 ± 0.0018 µM.

With `N=C(NCc1cccnc1)Nc1ccc(C(=O)N2CCCCC2)cc1` [MS19], the IC50 amounted to 14.5 ± 0.203 µM.

`O=S(=O)(c1ccc(NC(=S)NCc2cccnc2)cc1)N1CCN(C2CCCCC2)CC1` [MS8, 1-(4-((4-cyclohexylpiperazin-1-yl)sulfonyl)phenyl)-3-(pyridin-3-ylmethyl)thiourea]: the IC50 came to 0.0142 ± 0.0024 µM.

On to `COc1cccc(/C=C2/N=C(c3ccc(NC(=O)c4cccs4)cc3)OC2=O)c1OC` [compound 6443], for which the 50% inhibitory concentration (IC50) came out at 0.352 ± 0.045 µM.

Turning to `Cc1ccc(N2CCN(S(=O)(=O)c3ccc(NC(=S)NCc4cccnc4)cc3)CC2)cc1` [MS46], the IC50 was found to be 0.0154 ± 0.0016 µM.

Turning to `O=C1C[C@H](c2ccc(O)cc2)Oc2c1c(O)cc(O)c2[C@@H]1C(=O)c2c(O)cc(O)cc2O[C@H]1c1ccc(O)cc1` [compound 3909], the IC50 was 0.504 ± 0.124 µM.

Regarding `O=S(=O)(Nc1ccccc1)c1ccc(NC(=S)NCc2cccnc2)cc1` [MS3], the IC50 is 0.022 ± 0.0046 µM.

Take `O=S(=O)(c1ccc(NC(=S)NCc2cccnc2)cc1)N1CCN(Cc2ccc(F)cc2)CC1` [MS22]: the IC50 was found to be 0.012 ± 0.0015 µM.

Regarding `O=S(=O)(c1ccc(NC(=S)NCc2cccnc2)cc1)N1CCOCC1` [MS11], the IC50 amounted to 0.0217 ± 0.0008 µM.

With `N=C(NCc1cccnc1)Nc1ccc(S(=O)(=O)N2CCCCC2)cc1` [MS18], the IC50 was 0.765 ± 0.0748 µM.

As to `O=S(=O)(NCc1ccccc1)c1ccc(NC(=S)NCc2cccnc2)cc1` [MS10], the IC50 came to 0.0196 ± 0.0002 µM.

For the compound `O=S(=O)(c1ccc(NC(=S)NCc2cccnc2)cc1)N1CCN(Cc2ccncc2)CC1` [MS44], the IC50 was 0.0137 ± 0.0004 µM.

The test is the same for the next values; noted with them: recombinant human NAMPT, values given in μM; read-out: NAMPT IC50.
With `N=C(NCc1cccnc1)Nc1ccc(C(=O)N2CCCCC2)cc1` [MS19], the IC50 was determined as 14.5 ± 0.2 µM.

Consider `CCOC(=O)N=C(NCc1cccnc1)Nc1ccc(S(=O)(=O)N2CCCCC2)cc1` [MS12], for which the half-maximal inhibitory concentration (IC50) was greater than 166 µM.

One may read the IC50 as the midpoint of a concentration-inhibition curve.
